{"source": "patent US20060148754A1", "about": "“Composition for treating and/or preventing dysfunctions associated with type 2 diabetes mellitus and insulin resistance” (priority 2003, published 2006)", "experiment": "Acetate and glycerol tracer infusion study with ingestion of lactulose or saline in obese, insulin resistant subjects", "format": "in vivo, human", "description": "Eight obese and insulin resistant subjects received a primed constant intravenous infusion of [1-^13C]acetate at the rate of 0.50 μmol·kg^−1·min^−1 and of [1,1,2,3,3-^2H5]glycerol at the rate of 0.11 μmol·kg^−1·min^−1 for 9 hours. After 3 hours of tracer infusion, patients ingested 30 g of pure lactulose, or saline solution. Arterialized blood samples were collected regularly.", "data": [{"smiles": "OC[C@H]1O[C@@H](O[C@@H]2[C@@H](CO)OC(O)(CO)[C@H]2O)[C@H](O)[C@@H](O)[C@H]1O", "note": "(mixture of isomers) [lactulose]", "values": [{"measurement": "plasma acetate concentration, maximum", "setting": "after ingestion of 30 g lactulose, then decreased to baseline", "value": "≈ 400 μmol/L"}, {"measurement": "FFA concentrations", "setting": "after ingestion of 30 g lactulose, to 120 min, thereafter increased slowly", "value": "decreased significantly"}, {"measurement": "acetate turnover rate", "setting": "after ingestion of 30 g pure lactulose, eight obese insulin resistant subjects, saline 10.3±2.2, P<0.0001", "value": "15.5 ± 2.2", "unit": "µmol/kg/min"}, {"measurement": "glycerol turnover", "setting": "after ingestion of 30 g pure lactulose, saline 3.5±0.3, P≦0.05", "value": "2.8 ± 0.4", "unit": "µmol/kg/min"}]}]}
